Assay results taken from patent US12220415B2, “WEE1 kinase inhibitors and methods of treating cancer using the same” (The Regents of the University of Colorado, A Body Corporate, priority 2018, dated 2025).
Read-outs that look alike come from different tables or passages of the source.

How the values were obtained:
[1] = target: recombinant WEE1 kinase (Homo sapiens (Human), UniProt P30291); experiment: LanthaScreen Eu TR-FRET kinase binding assay for WEE1 kinase inhibitory activity; conditions: Kinase Tracer 178, 1 hour at room temperature
Method: A LanthaScreen™ kinase activity assay was conducted to assess WEE1 kinase inhibitory activity for compounds of this disclosure. […] All reagents were prepared as solutions in 1× kinase buffer A (Invitrogen) at 3× final desired concentration. […] Inhibitors were assayed in the final concentration range of 0.04 nM to 10 μM.

[2] = tested on: Daoy cells; experiment: MTS cell viability assay in Daoy cells; assay type: cell-based, human; conditions: for EC50: read-out: EC50 cellular metabolic viability, Daoy; for activity at 0.6 µM: at 600 nM; for inhibition at 0.6 µM: 72 hr, @ 600 nM, read-out: percent cell inhibition, DAOY
Method: (§1) FIG. 1A is a dose-response study for ONS-76 cells treated with a concentration range of WEE1 inhibitors for 72 hours in an MTS assay. […] FIG. 1B is a dose-response study for Daoy cells treated with a concentration range of WEE1 inhibitors for 72 hours in an MTS assay.
(§2) To evaluate the effect of the WEE1 kinase inhibitors, Daoy cells and ONS-76 cells (human primary medulloblastoma cell lines) were treated with test compounds and cell growth was by MTS assay (FIGS. 1A and 1B). […] Cells were incubated for 72 hr with 50 μL of each diluted drug solution. Cell viability was measured by 2 hr incubation with 30 μL CellTiter 96® AQueous One Cell Proliferation reagent (Promega) and formazan concentration assessed through colorimetric analysis using a BioTek Synergy H1 plate reader (Absorption=490 nm).

[3] = tested on: ONS-76 cells; experiment: MTS cell viability assay in ONS-76 cells; assay type: cell-based; conditions: Homo sapiens; for EC50: read-out: EC50 cellular metabolic viability, ONS-76; for IC50: read-out: Mean IC50, ONS-76; for inhibition at 1.16 µM: @ 1160 nM, read-out: percent cell inhibition, ONS-76
Method: as §1, §2

[4] = tested on: pCDK1 (Tyr15) in Daoy cell lysates; experiment: pCDK1 (Tyr15) ELISA in Daoy cell lysates; assay type: cell-based, human; conditions: 24 hours, single 220 nM dose
Method: WEE1 inactivates CDC2 through selective phosphorylation of the Tyr15 residue of cyclin-dependent kinase 1 (CDK1) stabilizing the CDC2-cyclin B complex. Therefore, inhibition of WEE1 kinase activity will prevent the phosphorylation of its substrate CDK1 at Tyr15. […] Following drug incubation, the media was aspirated from cells before cells were trypsinized and resuspended in TES/SB buffer containing protease inhibitors. Cells were lysed on ice through sonication, and cell lysates were diluted with ELISA Pathscan® sample diluent to a final volume of 100 μL and protein concentration of 0.05 mg/ml prior to use. The relative concentration of p-CDK1 Tyr15 was determined using an enzyme-linked immunosorbent assay according to recommended protocol (Cell Signaling, ELISA Pathscan® phosphor-Cdc2 (Tyr15)).

[5] = tested on: medulloblastoma cells; conditions: Mol Cancer. 2014, 13:72, cited from earlier work
[6] = tested on: murine AML-expressing MLL-ENL, FLT3-ITD, and luciferase; experiment: Murine AML model, disease progression by luciferase expression; assay type: in vivo; conditions: mice with AML, cytarabine alone
Method: In a second toxicity study, mice without leukemia were treated with cytarabine and/or a WEE1 inhibitor for 5 of 7 days for 3 consecutive weeks. […] The inventors then used an aggressive model of murine AML-expressing MLL-ENL, FLT3-ITD, and luciferase, to determine whether WEE1 inhibition would enhance the anti-leukemia effects of cytarabine.

[7] = Homo sapiens, Daoy cells, 72 hours, MTS assay
[8] = Homo sapiens, Daoy cells, MTS assay
[9] = ONS-76 cells, 72 hours, MTS assay, n=3, ±=S.D.

Sequence of recombinant WEE1 kinase (P30291 whole entry): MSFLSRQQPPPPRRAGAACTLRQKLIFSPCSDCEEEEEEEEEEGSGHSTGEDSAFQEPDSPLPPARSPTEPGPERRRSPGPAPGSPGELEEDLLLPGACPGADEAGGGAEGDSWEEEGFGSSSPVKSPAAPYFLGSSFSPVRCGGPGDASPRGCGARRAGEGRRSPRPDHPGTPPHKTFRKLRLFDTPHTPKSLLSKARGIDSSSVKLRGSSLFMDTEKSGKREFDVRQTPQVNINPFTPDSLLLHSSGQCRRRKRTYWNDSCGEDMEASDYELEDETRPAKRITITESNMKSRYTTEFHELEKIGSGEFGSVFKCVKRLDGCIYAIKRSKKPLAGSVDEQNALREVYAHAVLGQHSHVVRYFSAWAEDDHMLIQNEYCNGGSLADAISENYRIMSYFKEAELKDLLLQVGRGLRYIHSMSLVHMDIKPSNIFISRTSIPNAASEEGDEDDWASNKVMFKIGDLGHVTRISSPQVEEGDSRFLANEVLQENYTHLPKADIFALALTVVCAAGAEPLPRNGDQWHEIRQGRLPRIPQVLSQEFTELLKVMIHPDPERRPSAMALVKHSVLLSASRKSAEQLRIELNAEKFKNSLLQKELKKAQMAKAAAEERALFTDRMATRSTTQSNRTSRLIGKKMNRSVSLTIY

## C=CCn1c(=O)c2cnc(N)nc2n1-c1cccc(C(C)(C)O)n1
[1]
  IC50: 17.7 nM

## C=CCn1c(=O)c2cnc(NCc3ccc(CC)cc3)nc2n1-c1cccc(C(C)(C)O)n1
[1]
  IC50: 13.6 nM

## C=CCn1c(=O)c2cnc(Nc3cccc(C#N)c3)nc2n1-c1cccc(C(C)(C)O)n1
[1]
  IC50: 78.1 nM

## C=CCn1c(=O)c2cnc(Nc3cccc(C(=O)N(C)C)c3)nc2n1-c1cccc(C(C)(C)O)n1
[1]
  IC50: 27.3 nM

## COc1ccc(Cn2c(=O)c3cnc(Nc4ccc(N5CCN(C)CC5)cc4)nc3n2-c2cccc(C(C)(C)O)n2)cc1
[1]
  IC50: 89.7 nM

## C=C(C)c1cccc(-n2c3nc(Nc4ccc(N5CCN(C)CC5)cc4)ncc3c(=O)n2C)n1
[1]
  IC50: 179 nM

## C=CCn1c(=O)c2cnc(Nc3ccc(N4CCN(C)CC4)cc3)nc2n1-c1cccc(CO)c1
[1]
  IC50: 10.4 nM

## C=CCn1c(=O)c2cnc(Nc3ccc(N4CCN(C)CC4)cc3)nc2n1-c1cccc(C(C)(C)O)n1 [AZD1775, 2-allyl-1-(6-(2-hydroxypropan-2-yl)pyridin-2-yl)-6-((4-(4-methylpiperazin-1-yl)phenyl)amino)-1,2-dihydro-3H-pyrazolo[3,4-d]pyrimidin-3-one, reference compound]
[2]; Homo sapiens, Daoy, 72 h
  EC50: 150 nM
[2]; Homo sapiens, Daoy, 72 h, read-out: Mean IC50, DAOY
  IC50: 378 nM
[2]; Daoy cells, 72 hours, MTS assay, n=3, ±=S.D.
  EC50: 179 ± 16 nM
[3]; ONS-76, 72 h
  EC50: 290 nM
  IC50: 221 nM
[4]
  pCDK1(Tyr15) level compared to DMSO control: decrease
[5]; medulloblastoma cells
  activity in combination with cisplatin: synergistic activity
[5]; single agent
  single agent effect in medulloblastoma: suppressed cell growth, induced apoptosis, and decreased tumor growth

## C=CCn1c(=O)c2cnc(Nc3ccc(N4CCN(C)CC4)cc3)nc2n1-c1cccc(C(C)(C)O)c1 [CM-169, 2-allyl-1-(3-(2-hydroxypropan-2-yl)phenyl)-6-((4-(4-methylpiperazin-1-yl)phenyl)amino)-1,2-dihydro-3H-pyrazolo[3,4-d]pyrimidin-3-one]
[3]; ONS-76 cells, 72 hr, MTS assay
  inhibition at 1.16 µM: 61%
[4]
  pCDK1(Tyr15) level compared to DMSO control: statistically the same as that for AZD1775

## C=CCn1c(=O)c2cnc(Nc3ccc(N4CCN(C)CC4)cc3)nc2n1-c1cccc(CO)n1 [CM-170, 2-allyl-1-(6-(hydroxymethyl)pyridin-2-yl)-6-((4-(4-methylpiperazin-1-yl)phenyl)amino)-1,2-dihydro-3H-pyrazolo[3,4-d]pyrimidin-3-one]
[3]; ONS-76 cells, 72 hr, MTS assay
  inhibition at 1.16 µM: 59%

## C=CCn1c(=O)c2cnc(Nc3ccc(OCCN(C)C)cc3)nc2n1-c1cccc(C(C)(C)O)n1 [CM-181, 2-allyl-6-((4-(2-(dimethylamino)ethoxy)phenyl)amino)-1-(6-(2-hydroxypropan-2-yl)pyridin-2-yl)-1,2-dihydro-3H-pyrazolo[3,4-d]pyrimidin-3-one]
[2]; [7]
  activity at 0.6 µM: 81%
[2]; [8]
  inhibition at 0.6 µM: 82%
[3]; [9]
  EC50: 203 ± 40 nM
[3]; ONS-76 cells, 72 hr, MTS assay
  IC50: 273 nM
[4]
  pCDK1(Tyr15) level compared to DMSO control: decrease

## C=CCn1c(=O)c2cnc(Nc3cccc(CN(C)C)c3)nc2n1-c1cccc(C(C)(C)O)n1 [KAC-014, 2-allyl-6-((3-((dimethylamino)methyl)phenyl)amino)-1-(6-(2-hydroxypropan-2-yl)pyridin-2-yl)-1,2-dihydro-3H-pyrazolo[3,4-d]pyrimidin-3-one]
[3]; ONS-76 cells, 72 hr, MTS assay
  inhibition at 1.16 µM: 40%

## C=CCn1c(=O)c2cnc(Nc3ccccc3)nc2n1-c1cccc(C(C)(C)O)n1 [KAC-017, 2-allyl-1-(6-(2-hydroxypropan-2-yl)pyridin-2-yl)-6-(phenylamino)-1,2-dihydro-3H-pyrazolo[3,4-d]pyrimidin-3-one]
[3]; ONS-76 cells, 72 hr, MTS assay
  inhibition at 1.16 µM: 32%

## C=CCn1c(=O)c2cnc(Nc3cccc(N(C)C)c3)nc2n1-c1cccc(C(C)(C)O)n1 [KAC-019, 2-allyl-6-((3-(dimethylamino)phenyl)amino)-1-(6-(2-hydroxypropan-2-yl)pyridin-2-yl)-1,2-dihydro-3H-pyrazolo[3,4-d]pyrimidin-3-one]
[3]; ONS-76 cells, 72 hr, MTS assay
  inhibition at 1.16 µM: 33%

## C=CCn1c(=O)c2cnc(Nc3ccc(CCN(C)C)cc3)nc2n1-c1cccc(C(C)(C)O)n1 [KAC-034, 2-allyl-6-((4-(2-(dimethylamino)ethyl)phenyl)amino)-1-(6-(2-hydroxypropan-2-yl)pyridin-2-yl)-1,2-dihydro-3H-pyrazolo[3,4-d]pyrimidin-3-one]
[2]; [7]
  activity at 0.6 µM: 84%
[2]; [8]
  inhibition at 0.6 µM: 83%
[3]; [9]
  EC50: 252 ± 9 nM
[3]; ONS-76 cells, 72 hr, MTS assay
  IC50: 495 nM
[4]
  pCDK1(Tyr15) level compared to DMSO control: decrease

## Nc1ccn([C@@H]2O[C@H](CO)[C@@H](O)[C@@H]2O)c(=O)n1 [cytarabine]
[6]
  leukemia progression, measured by luciferase expression over time: slowed the progression of the leukemia

## C=CCn1c(=O)c2cnc(Nc3ccccc3)nc2n1-c1cccc(C(C)(C)O)n1 [drawing 14]
[1]
  IC50: 9.6 nM

## C=CCn1c(=O)c2cnc(Nc3cccc(CN(C)C)c3)nc2n1-c1cccc(C(C)(C)O)n1 [drawing 18]
[1]
  IC50: 9.1 nM

## C=CCn1c(=O)c2cnc(Nc3ccc(CCN(C)C)cc3)nc2n1-c1cccc(C(C)(C)O)n1 [drawing 20]
[1]
  IC50: 1.8 nM

## C=CCn1c(=O)c2cnc(Nc3ccc(OCCN(C)C)cc3)nc2n1-c1cccc(C(C)(C)O)n1 [drawing 21]
[1]
  IC50: 7.8 nM
